Columns and labels:
Format in all cases: cell-based, human
[1] = test system: MMP-13; assay: MMP-13 expression (ELISA) in 3D cultured SW-1353 cells stimulated with IL-β; conditions: 3D SW-1353, 10 mM of inhibitor together with 0, 10, 100 and 1000 μl/ml DNA fragment mixture, IL-β 10 ng/ml
Protocol: (§1) SW-1353 cells were grown on a 3D collagen […] with or without a DNA fragment mixture (polydeoxyribonucleotides (PDRN), 450 kDa, sterilized, BR Pharm Co, Wonju, South Korea). SW-1353 cells were harvested from the 2D culture, and the cells in the medium were counted. Next, the cells were spun down and cooled. For use of the DNA fragment mixture as an extracellular matrix (ECM) additive to 3D chondrocytes, 10 mg/ml of the DNA fragment mixture was dissolved in 10× PBS and diluted with 10× PBS at concentrations of 0 μg/ml, 10 μg/ml, 100 μg/ml and 1000 μg/ml. 10× PBS, containing different concentrations of the DNA fragment mixture, and rat tail collagen I solution diluted with DMEM at a concentration of 4 mg/ml, were mixed at a ratio of 1:10, and the mixture was adjusted to a pH of 7.0-7.4 with NaOH. Thereafter, the cells were carefully shaken to avoid air bubbles from entering the collagen solution. 2 μl of the solution was added to each well to construct a 3D gel-cell. The gel was kept in an incubator (37° C. and 5% CO2) for 45 minutes, and the 3D gel-cell matrix was exposed to serum-free medium for 48 hours. For drug screening from the DNA fragment mixture, the DNA fragment mixture was treated with serum-free medium after the SW-1353 cells were sufficiently grown.
(§2) SW-1353 cells were treated with 10-1000 μg/ml of the DNA fragment mixture and 0.1-10 mM of each of glucosamine (GLN), N-acetyl-D-glucosamine (NAG), alliin, sodium butyrate (SB) and chondroitin sulfate (CS) for 24 hours, and stimulated with 10 ng/ml of IL-β for analysis of MMP expression therein.
(§3) To evaluate MMP expression, IL-β was dissolved in serum-free DMEM medium and used at a final concentration of 10 ng/ml. The cells were cultured at 37° C. under 5% CO2. The cell culture supernatant was collected, centrifuged, and then stored at −80° C. until use in the experiment. The amounts of MMP-3 and MMP-13 in the culture supernatant were measured using commercially available ELISA (enzyme-linked immunosorbent assays) according to the manufacturer's protocol.
(§4) During 3D cell culture, chondrocytes were cultured in 10% serum-containing medium or serum-free medium, and the cultured chondrocytes were stimulated with IL-β (10 ng/ml).
(§5) In addition, after 24 hours of treatment with the DNA fragment mixture and IL-β in serum-free medium, two markers (MMP-3 and MMP-13) which are frequently involved in degenerative arthritis disease were analyzed.

[2] = test system: MMP-3; assay: MMP-3 expression (ELISA of culture supernatant) in 2D cultured SW-1353 cells stimulated with IL-β; conditions: 2D SW-1353, 10 mM of inhibitor together with 0, 10, 100 and 1000 μg/ml DNA fragment mixture, IL-β 10 ng/ml
Protocol: (§6) The human chondrosarcoma cell line SW-1353 (HTB-94, ATCC, Mansassas, Va., USA) was cultured in DMEM (Dulbecco Modified Eagle's medium) supplemented with 10% FBS (fetal bovine serum) and 1% antibiotic-antifungal agent. An incubator for cell culture was kept at 37° C. under 5% CO2. For cell culture, cells were seeded into a culture flask at a density of 1.2×10^4 cells/cm^2. When a confluence of 80-90% was reached, the cells were trypsinized. The cells were subcultured 9 times before use in the experiment.
as §2, §3
(§7) Cells of test groups were cultured with 10 ng/ml of IL-β under the same conditions as those of the control group.

[3] = test system: MMP-13; assay: MMP-13 expression (ELISA of culture supernatant) in 2D cultured SW-1353 cells stimulated with IL-β; conditions: 2D SW-1353, 10 mM of inhibitor together with 0, 10, 100 and 1000 μl/ml DNA fragment mixture, IL-β 10 ng/ml
Protocol: as §6, §2, §3, §7

[4] = test system: MMP-3; assay: MMP-3 expression (ELISA) in 3D cultured SW-1353 cells stimulated with IL-β; conditions: 3D SW-1353, 10 mM of inhibitor together with 0, 10, 100 and 1000 μg/ml DNA fragment mixture, IL-β 10 ng/ml
Protocol: as §1, §2, §3, §4, §5

alliin
decreased: expression level of MMP-13 protein [1] | expression level of MMP-3 protein [2] | expression level of MMP-13 protein [3] | expression level of MMP-3 protein [4]

CCCC(=O)[O-].[Na+] [sodium butyrate]
decreased: expression level of MMP-13 protein [1] | expression level of MMP-3 protein [2] | expression level of MMP-13 protein [3] | expression level of MMP-3 protein [4]

chondroitin sulfate
decreased: expression level of MMP-13 protein [1] | expression level of MMP-3 protein [2] | expression level of MMP-13 protein [3] | expression level of MMP-3 protein [4]

CC(=O)N[C@H]1C(O)O[C@H](CO)[C@@H](O)[C@@H]1O (stereo partly drawn) [N-acetyl-D-glucosamine]
decreased: expression level of MMP-13 protein [1] | expression level of MMP-3 protein [2] | expression level of MMP-13 protein [3] | expression level of MMP-3 protein [4]

N[C@H]1C(O)O[C@H](CO)[C@@H](O)[C@@H]1O (some centres unmarked) [glucosamine]
decreased: expression level of MMP-13 protein [1] | expression level of MMP-3 protein [2] | expression level of MMP-13 protein [3] | expression level of MMP-3 protein [4]

Reference: patent publication US20190374566A1, “COMPOSITION FOR PREVENTING AND TREATING ARTHRITIS, INCLUDING DNA FRAGMENT MIXTURE AND MATRIX METALLOPROTEINASE PRODUCTION INHIBITOR” (BR PHARM CO., LTD., priority 2018, published 2019)
